Assay results published in US20260098046A1, “RIFABUTIN ANALOGS FOR THE TREATMENT OF DISEASE” (BIOVERSYS AG, priority 2022, published 2026).
In brackets after ≈: the same amount, converted by molar mass.

What was measured:
Type in all cases: cell-based
[1] = system: M. abscessus (ATCC 19977); assay: MIC by broth microdilution (CLSI) against M. abscessus; details: Mycobacteroides abscessus, ATCC19977, 96 h; ATCC 19977; Middlebrook 7H9 broth + ADC (10%); 30° C. for 4 days; read-out: In vitro activity (MIC) M. abscessus
Experimental: (§1) MIC values were determined by broth microdilution method according to the CLSI guideline. Unless otherwise mentioned, MIC against A. baumannii was performed in RPMI medium supplemented with 10% FCS. MIC against M. abscessus was performed in Middlebrook 7H9 broth supplemented with Middlebrook ADC growth supplement (10%). All other MIC were performed in standard cation adjusted Mueller Hinton broth, supplemented with Middlebrook ADC growth supplement (5%) for the slow growing mycobacteria (M. xenopi, M. kansasii and M. avium).
(§2) The following procedure applies to all species tested, except for M. xenopi. From a fresh culture plate (from overnight to several days depending on the bacteria), cells were resuspended in 0.9% (w/v) saline solution and bacterial inoculum was prepared in the respective testing medium with 5×10^5 CFU/mL. For M. xenopi, the inoculum was prepared from a fresh liquid culture (7H9+ADC). The appropriate volumes of a 10 mg/mL compound solution were directly dispensed in the 96-well assay plate using a digital dispenser to create two-fold dilution series from 32 to 0.002 μg/mL final concentration for A. baumannii and S. aureus; from 16 to 0.016 μg/mL for M. abscessus and M. avium; and from 1 to 6×10^−5 μg/mL for M. kansasii and M. xenopi. 100 μL of bacterial suspension was finally added to the compounds. Plates were covered and incubated without shaking at 35° C. for 20 hours for A. baumanii and S. aureus; at 30° C. for 4 days for M. abscessus; and at 37° C. for 7 days (at least) for M. kansasii (covered with aluminum foil to avoid light exposure), M. avium and M. xenopi. Every experiment contained an antibiotic as quality control. MIC was determined visually as the lowest concentration of a compound that prevents visible growth of the bacteria.
(§3) The in vitro activity of compounds described herein was determined against S. aureus (UAMS-1625 strain), A. baumannii (HUMC1 strain), M. abscessus (ATCC 19977), M. kansasii (ATCC12478), M. avium (ATCC25291), and M. xenopi (ATCC19250).

M. kansasii (ATCC12478) = assay: MIC by broth microdilution (CLSI) against M. kansasii; details: Mycobacterium kansasii, 168 h, cation adjusted Mueller Hinton broth + ADC (5%), 37° C. for 7 days (at least), read-out: In vitro activity (MIC) M. kansasii
Experimental: as §1, §2, §3

[2] = system: S. aureus (UAMS-1625 strain); assay: MIC by broth microdilution (CLSI) against S. aureus; details: Staphylococcus aureus, 20 h, read-out: In vitro activity (MIC) S. aureus
Experimental: as §1, §2, §3

[3] = system: A. baumannii (HUMC1 strain); assay: MIC by broth microdilution (CLSI) against A. baumannii; details: Acinetobacter baumannii, RPMI medium supplemented with 10% FCS, 35° C. for 20 hours, read-out: In vitro activity (MIC) A. baumannii
Experimental: as §1, §2, §3

M. avium (ATCC25291) = assay: MIC by broth microdilution (CLSI) against M. avium; details: Mycobacterium avium, 168 h, cation adjusted Mueller Hinton broth + ADC (5%), 37° C. for 7 days (at least), read-out: In vitro activity (MIC) M. avium
Experimental: as §1, §2, §3

M. xenopi (ATCC19250) = assay: MIC by broth microdilution (CLSI) against M. xenopi; details: Mycobacterium xenopi, 168 h, cation adjusted Mueller Hinton broth + ADC (5%), 37° C. for 7 days (at least), read-out: In vitro activity (MIC) M. xenopi
Experimental: as §1, §2, §3

CO[C@H]1/C=C/O[C@@]2(C)Oc3c(C)c(O)c4c(c3C2=O)C2=NC3(CCN(CC(C)C)CC3)NC2=C(NC(=O)/C(C)=C\C=C\[C@H](C)[C@H](O)[C@@H](C)[C@@H](O)[C@@H](C)[C@H](OC(=O)Cn2cc(-c3ccc([N+](=O)[O-])cc3)nn2)[C@@H]1C)C4=O [Compound 4]
MIC [1]: 0.125 µg/mL
MIC (M. kansasii (ATCC12478)): 0.002 µg/mL
MIC [2]: 0.5 µg/mL (≈ 0.483 µM)
MIC [3]: 0.125 µg/mL (≈ 0.121 µM)
MIC (M. avium (ATCC25291)): 0.03 µg/mL
MIC (M. xenopi (ATCC19250)): 0.03 µg/mL

COc1ccc(-c2cn(CC(=O)O[C@H]3[C@H](C)[C@H](O)[C@H](C)[C@@H](O)[C@@H](C)/C=C/C=C(/C)C(=O)NC4=C5NC6(CCN(CC(C)C)CC6)N=C5c5c(c(O)c(C)c6c5C(=O)[C@@](C)(O/C=C/[C@H](OC)[C@H]3C)O6)C4=O)nn2)cc1 [Compound 2]
MIC [1]: 0.25 µg/mL
MIC (M. kansasii (ATCC12478)): 0.002 µg/mL
MIC [2]: 0.125 µg/mL (≈ 0.123 µM)
MIC [3]: 0.016 µg/mL (≈ 0.0157 µM)
MIC (M. avium (ATCC25291)): 0.06 µg/mL
MIC (M. xenopi (ATCC19250)): 0.125 µg/mL

CO[C@H]1/C=C/O[C@@]2(C)Oc3c(C)c(O)c4c(c3C2=O)C2=NC3(CCN(CC(C)C)CC3)NC2=C(NC(=O)/C(C)=C\C=C\[C@H](C)[C@H](O)[C@@H](C)[C@@H](O)[C@@H](C)[C@H](OC(=O)Cn2cc(-c3ccccn3)nn2)[C@@H]1C)C4=O [Compound 8]
MIC [1]: 0.25 µg/mL
MIC (M. kansasii (ATCC12478)): 0.004 µg/mL
MIC [2]: 0.03 µg/mL (≈ 0.0303 µM)
MIC [3]: ≤ 0.002 µg/mL
MIC (M. avium (ATCC25291)): 0.06 µg/mL
MIC (M. xenopi (ATCC19250)): 0.06 µg/mL

CO[C@H]1/C=C/O[C@@]2(C)Oc3c(C)c(O)c4c(c3C2=O)C2=NC3(CCN(CC(C)C)CC3)NC2=C(NC(=O)/C(C)=C\C=C\[C@H](C)[C@H](O)[C@@H](C)[C@@H](O)[C@@H](C)[C@H](OC(=O)Cn2cc(C3CCCCC3)nn2)[C@@H]1C)C4=O [Compound 26]
MIC [1]: 0.25 µg/mL
MIC (M. kansasii (ATCC12478)): 0.002 µg/mL
MIC [2]: 0.125 µg/mL (≈ 0.125 µM)
MIC [3]: 0.016 µg/mL (≈ 0.0161 µM)
MIC (M. avium (ATCC25291)): 0.03 µg/mL
MIC (M. xenopi (ATCC19250)): 0.03 µg/mL

CO[C@H]1/C=C/O[C@@]2(C)Oc3c(C)c(O)c4c(c3C2=O)C2=NC3(CCN(CC(C)C)CC3)NC2=C(NC(=O)/C(C)=C\C=C\[C@H](C)[C@H](O)[C@@H](C)[C@@H](O)[C@@H](C)[C@H](OC(=O)Cn2cc(CN(C)Cc3ccccc3)nn2)[C@@H]1C)C4=O [Compound 12]
MIC [1]: 0.25 µg/mL
MIC (M. kansasii (ATCC12478)): 0.004 µg/mL
MIC [2]: 0.125 µg/mL (≈ 0.119 µM)
MIC [3]: 0.008 µg/mL (≈ 0.00764 µM)
MIC (M. avium (ATCC25291)): 0.03 µg/mL
MIC (M. xenopi (ATCC19250)): 0.03 µg/mL
